Like-named read-outs stand apart in the source and are kept apart here. *1 amine or outer side, *2 acyl side, *3 side chain or, on linkers, in order; H or OH if unused. Where a SMILES comes first, the peptide text is derived from it. [ ]: non-standard residue; d: D form. The star is where a group is joined. Benzothienyl2CO(5-CF2PO3H2) = O=C(c1cc2cc(C(F)(F)P(=O)(O)O)ccc2s1)*; βAla(N-(4-Br-phenyl)) = O=C(CCN(c1ccc(Br)cc1)[*:1])[*:2]; NHBn(4-(4-Me-thiazol-5-yl)) = Cc1ncsc1-c1ccc(CN*)cc1; Hyp = O=C(O)[C@@H]1C[C@@H](O)CN1; Tle = CC(C)(C)[C@H](N)C(=O)O; Ahx = NCCCCCC(=O)O
Biological target: T1, STAT6 (Homo sapiens, UniProt P42226)
T1 construct: endogenous in cells; host or cells: MOLM-16, KU-812, SKNO1, MB231, L1236
T1 sequence (P42226 1-847): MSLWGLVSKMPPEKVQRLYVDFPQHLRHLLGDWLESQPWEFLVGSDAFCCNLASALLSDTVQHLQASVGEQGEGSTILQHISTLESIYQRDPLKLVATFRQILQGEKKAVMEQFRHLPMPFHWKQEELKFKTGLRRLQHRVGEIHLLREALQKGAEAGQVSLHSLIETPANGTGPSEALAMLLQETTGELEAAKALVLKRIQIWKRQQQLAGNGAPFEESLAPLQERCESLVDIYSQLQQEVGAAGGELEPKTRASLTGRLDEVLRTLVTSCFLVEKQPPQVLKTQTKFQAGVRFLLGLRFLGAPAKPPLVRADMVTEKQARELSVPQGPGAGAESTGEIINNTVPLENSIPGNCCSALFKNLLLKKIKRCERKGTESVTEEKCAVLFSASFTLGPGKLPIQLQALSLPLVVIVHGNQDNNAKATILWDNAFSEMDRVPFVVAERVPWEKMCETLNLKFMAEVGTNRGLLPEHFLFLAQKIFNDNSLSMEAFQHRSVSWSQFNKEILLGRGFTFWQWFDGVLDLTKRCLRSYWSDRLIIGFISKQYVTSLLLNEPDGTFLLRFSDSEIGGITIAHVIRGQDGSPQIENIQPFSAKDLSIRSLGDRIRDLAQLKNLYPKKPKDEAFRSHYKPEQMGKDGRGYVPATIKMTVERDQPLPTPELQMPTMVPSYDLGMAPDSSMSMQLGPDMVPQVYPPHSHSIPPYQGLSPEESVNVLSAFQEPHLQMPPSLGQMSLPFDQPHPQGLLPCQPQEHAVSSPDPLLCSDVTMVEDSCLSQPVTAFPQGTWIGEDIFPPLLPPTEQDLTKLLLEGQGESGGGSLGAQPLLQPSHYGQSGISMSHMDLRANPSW
Assay: Immunoblotting (Western blot) analysis of STAT6 degradation efficiency of degraders in treated cells
Format: cell-based
Outline: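 Treatment of cells with degraders at stated concentrations and exposure times comes first. Lysates are then equalised for total protein by BCA, and the proteins are separated, transferred and immunostained for STAT6 or STAT5 alongside GAPDH. Signal is quantified from infrared fluorescence.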

[1] = MOLM-16 cells, class symbols, read-out: DC50 S6 MOLM-16
[2] = L1236 cells, read-out: DC50 S6 L1236

Compound | DC50 [1] [µM] | DC50 [2] [µM] | DC50 (read-out: DC50 S6 MB231, MB231 cells) [µM]
CC(C)(C)[C@H](NC(=O)c1cc2cc(C(F)(F)P(=O)(O)O)ccc2s1)C(=O)N1CCN(C(=O)CC(=O)NCCCCCC#Cc2ccc3c(c2)C(=O)N(C2CCC(=O)NC2=O)C3=O)C[C@H]1C(=O)N1CCO[C@H](c2ccccc2)C1 (stereo partly drawn) [Compound 516, ((2-(((2S)-1-((2S)-4-(3-((7-(2-(2,6-dioxopiperidin-3-yl)-1,3-dioxoisoindolin-5-yl)hept-6-yn-1-yl)amino)-3-oxopropanoyl)-2-((R)-2-phenylmorpholine-4-carbonyl)piperazin-1-yl)-3,3-dimethyl-1-oxobutan-2-yl)carbamoyl)benzo[b]thiophen-5-yl)difluoromethyl)phosphonic acid] | > 10 |  | 
Cc1ncsc1-c1ccc([C@H](C)NC(=O)[C@@H]2C[C@@H](O)CN2C(=O)[C@@H](NC(=O)CCCCCCCCCNC(=O)CC(=O)N2CCN(C(=O)[C@@H](NC(=O)c3cc4cc(C(F)(F)P(=O)(O)O)ccc4s3)C(C)(C)C)[C@H](C(=O)N3CCC[C@H](c4ccccc4)C3)C2)C(C)(C)C)cc1 [Compound 460, (difluoro(2-(((S)-1-((S)-4-(3-((10-(((S)-1-((2S,4R)-4-hydroxy-2-(((S)-1-(4-(4-methylthiazol-5-yl)phenyl)ethyl)carbamoyl)pyrrolidin-1-yl)-3,3-dimethyl-1-oxobutan-2-yl)amino)-10-oxodecyl)amino)-3-oxopropanoyl)-2-((R)-3-phenylpiperidine-1-carbonyl)piperazin-1-yl)-3,3-dimethyl-1-oxobutan-2-yl)carbamoyl)benzo[b]thiophen-5-yl)methyl)phosphonic acid] | > 10 | > 10 | 
CC(C)(C)[C@H](NC(=O)c1cc2cc(C(F)(F)P(=O)(O)O)ccc2s1)C(=O)N1C[C@@H](OCC(=O)NCCCCC#Cc2cccc3c2C(=O)N(C2CCC(=O)NC2=O)C3=O)C[C@H]1C(=O)N1CCC[C@H](c2ccccc2)C1 (stereo partly drawn) [Compound 499, ((2-(((2S)-1-((2S,4S)-4-(2-((6-(2-(2,6-dioxopiperidin-3-yl)-1,3-dioxoisoindolin-4-yl)hex-5-yn-1-yl)amino)-2-oxoethoxy)-2-((R)-3-phenylpiperidine-1-carbonyl)pyrrolidin-1-yl)-3,3-dimethyl-1-oxobutan-2-yl)carbamoyl)benzo[b]thiophen-5-yl)difluoromethyl)phosphonic acid] | > 10 |  | 
CC(C)(C)[C@H](NC(=O)c1cc2cc(C(F)(F)P(=O)(O)O)ccc2s1)C(=O)N1CCN(C(=O)CC(=O)NCCCCCCCCCC#Cc2ccc3c(c2)C(=O)N(C2CCC(=O)NC2=O)C3=O)C[C@H]1C(=O)N1CCC[C@H](c2ccccc2)C1 (stereo partly drawn) [Compound 534, ((2-(((2S)-1-((2S)-4-(3-((11-(2-(2,6-dioxopiperidin-3-yl)-1,3-dioxoisoindolin-5-yl)undec-10-yn-1-yl)amino)-3-oxopropanoyl)-2-((R)-3-phenylpiperidine-1-carbonyl)piperazin-1-yl)-3,3-dimethyl-1-oxobutan-2-yl)carbamoyl)benzo[b]thiophen-5-yl)difluoromethyl)phosphonic acid] | > 10 |  | 
Cc1ncsc1-c1ccc([C@H](C)NC(=O)[C@@H]2C[C@@H](O)CN2C(=O)[C@@H](NC(=O)CCNC(=O)CC(=O)N2CCN(C(=O)[C@@H](NC(=O)c3cc4cc(C(F)(F)P(=O)(O)O)ccc4s3)C(C)(C)C)[C@H](C(=O)N3CCO[C@H](c4ccccc4)C3)C2)C(C)(C)C)cc1 [Compound 444, (difluoro(2-(((S)-1-((S)-4-(3-((3-(((S)-1-((2S,4R)-4-hydroxy-2-(((S)-1-(4-(4-methylthiazol-5-yl)phenyl)ethyl)carbamoyl)pyrrolidin-1-yl)-3,3-dimethyl-1-oxobutan-2-yl)amino)-3-oxopropyl)amino)-3-oxopropanoyl)-2-((R)-2-phenylmorpholine-4-carbonyl)piperazin-1-yl)-3,3-dimethyl-1-oxobutan-2-yl)carbamoyl)benzo[b]thiophen-5-yl)methyl)phosphonic acid] | > 10 | > 10 | 
Cc1ncsc1-c1ccc([C@H](C)NC(=O)[C@@H]2C[C@@H](O)CN2C(=O)[C@@H](NC(=O)CCCCCCCNC(=O)CC(=O)N2CCN(C(=O)[C@@H](NC(=O)c3cc4cc(C(F)(F)P(=O)(O)O)ccc4s3)C(C)(C)C)[C@H](C(=O)N3CCC[C@H](c4ccccc4)C3)C2)C(C)(C)C)cc1 [Compound 458, (difluoro(2-(((S)-1-((S)-4-(3-((8-(((S)-1-((2S,4R)-4-hydroxy-2-(((S)-1-(4-(4-methylthiazol-5-yl)phenyl)ethyl)carbamoyl)pyrrolidin-1-yl)-3,3-dimethyl-1-oxobutan-2-yl)amino)-8-oxooctyl)amino)-3-oxopropanoyl)-2-((R)-3-phenylpiperidine-1-carbonyl)piperazin-1-yl)-3,3-dimethyl-1-oxobutan-2-yl)carbamoyl)benzo[b]thiophen-5-yl)methyl)phosphonic acid] | > 10 | > 10 | 
CC(C)(C)[C@H](NC(=O)c1cc2cc(C(F)(F)P(=O)(O)O)ccc2s1)C(=O)N1C[C@@H](OCC(=O)NCCC#Cc2ccc3c(c2)C(=O)N(C2CCC(=O)NC2=O)C3=O)C[C@H]1C(=O)N1CCC[C@H](c2ccccc2)C1 (stereo partly drawn) [Compound 496, ((2-(((2S)-1-((2S,4S)-4-(2-((4-(2-(2,6-dioxopiperidin-3-yl)-1,3-dioxoisoindolin-5-yl)but-3-yn-1-yl)amino)-2-oxoethoxy)-2-((R)-3-phenylpiperidine-1-carbonyl)pyrrolidin-1-yl)-3,3-dimethyl-1-oxobutan-2-yl)carbamoyl)benzo[b]thiophen-5-yl)difluoromethyl)phosphonic acid] | > 10 |  | 
Cc1ncsc1-c1ccc([C@H](C)NC(=O)[C@@H]2C[C@@H](O)CN2C(=O)[C@@H](NC(=O)CCCCCCCNC(=O)CO[C@H]2C[C@@H](C(=O)N3CCO[C@H](c4ccccc4)C3)N(C(=O)[C@@H](NC(=O)c3cc4cc(C(F)(F)P(=O)(O)O)ccc4s3)C(C)(C)C)C2)C(C)(C)C)cc1 [Compound 431, (difluoro(2-(((S)-1-((2S,4S)-4-(2-((8-(((S)-1-((2S,4R)-4-hydroxy-2-(((S)-1-(4-(4-methylthiazol-5-yl)phenyl)ethyl)carbamoyl)pyrrolidin-1-yl)-3,3-dimethyl-1-oxobutan-2-yl)amino)-8-oxooctyl)amino)-2-oxoethoxy)-2-((R)-2-phenylmorpholine-4-carbonyl)pyrrolidin-1-yl)-3,3-dimethyl-1-oxobutan-2-yl)carbamoyl)benzo[b]thiophen-5-yl)methyl)phosphonic acid] | > 10 | > 10 | 
Cc1ncsc1-c1ccc(CNC(=O)[C@@H]2C[C@@H](O)CN2C(=O)[C@@H](NC(=O)CCCCCNC(=O)CCN(C(=O)[C@@H]2CCCN2C(=O)[C@@H](NC(=O)c2cc3cc(C(F)(F)P(=O)(O)O)ccc3s2)C(C)(C)C)c2ccc(Br)cc2)C(C)(C)C)cc1 [Compound 400] ({Benzothienyl2CO(5-CF2PO3H2)}-[Tle]P[βAla(N-(4-Br-phenyl))][Ahx][Tle][Hyp]-{NHBn(4-(4-Me-thiazol-5-yl))}) |  |  | > 10
CC(C)(C)[C@H](NC(=O)c1cc2cc(C(F)(F)P(=O)(O)O)ccc2s1)C(=O)N1C[C@@H](OCC(=O)NCC#Cc2cccc3c2C(=O)N(C2CCC(=O)NC2=O)C3=O)C[C@H]1C(=O)N1CCO[C@H](c2ccccc2)C1 (stereo partly drawn) [Compound 479, ((2-(((2S)-1-((2S,4S)-4-(2-((3-(2-(2,6-dioxopiperidin-3-yl)-1,3-dioxoisoindolin-4-yl)prop-2-yn-1-yl)amino)-2-oxoethoxy)-2-((R)-2-phenylmorpholine-4-carbonyl)pyrrolidin-1-yl)-3,3-dimethyl-1-oxobutan-2-yl)carbamoyl)benzo[b]thiophen-5-yl)difluoromethyl)phosphonic acid] | > 10 |  | 
